Source: the NIST ThermoML archive (doi:10.1021/acs.jced.7b00995)

How the values were obtained:
[1] = 313.15 K, Liquid, Vibrating tube method
[2] = xn = mol fraction of the nth substance listed; conditions: Liquid, Vibrating tube method

CCCCCCCCCCCCCCC [pentadecane]
[1]
Conditions | mass density [kg/m3]
100 kPa | 752.2
6910 kPa | 757.8
20790 kPa | 766.9
34670 kPa | 776.1
55490 kPa | 787.5
76930 kPa | 797.3

CCCCCCCCCCCCCCC [pentadecane] + O=C=O
mass density [kg/m3], [2]
Conditions | x2 = 0.376 | x2 = 0.562 | x2 = 0.757
313.15 K, 6.36 kPa | – | 779.4 | –
313.15 K, 6.91 kPa | 770 | – | –
313.15 K, 8.8 kPa | – | – | 798.3
313.15 K, 11.29 kPa | – | – | 804.2
313.15 K, 13.85 kPa | – | – | 810.2
313.15 K, 20.79 kPa | 784 | 796.8 | 828.1
313.15 K, 34.67 kPa | 795.8 | 808.8 | 843.2
313.15 K, 55.49 kPa | 809 | 829 | 867.8
313.15 K, 76.31 kPa | 825.4 | 841.5 | 885.9
363.15 K, 6.94 kPa | 725.3 | – | –
363.15 K, 10.73 kPa | – | 730.3 | –
363.15 K, 17.13 kPa | – | – | 738.8
363.15 K, 20.82 kPa | 744.5 | 745.5 | 749.2
363.15 K, 34.7 kPa | 754.3 | 768.8 | 780
363.15 K, 55.52 kPa | 775.6 | 784.7 | 812.3
363.15 K, 76.34 kPa | 787 | 800.8 | 831.7
410.15 K, 13.9 kPa | – | 686.5 | –
410.15 K, 13.91 kPa | 693.8 | – | –
410.15 K, 20.85 kPa | 702.6 | 701.8 | –
410.15 K, 21.95 kPa | – | – | 682.7
410.15 K, 27.79 kPa | – | – | 702
410.15 K, 34.73 kPa | 723.3 | 724.9 | 723.5
410.15 K, 55.55 kPa | 742.3 | 749.5 | 763.8
410.15 K, 76.37 kPa | 757.3 | 769.3 | 796.1
